Reference: patent publication US8815862B2, “Co-crystal intermediates of rosuvastatin and methods of using same” (F.I.S. Fabbrica Italiana Sintetici S.p.A., priority 2011, dated 2014)

Columns and labels:
[1] = cited from earlier work
[2] = Stability study at 40° C. under vacuum (impurity/lactone content); type: physicochemical; details: for lactone content after storage: 20 and 40 hours (final value); for lactone impurity content of starting product: before storage; for chemical stability compared to Rosuvastatin acid: 40 h, hemihydrate
Method: Stability Studies at 40° C. Under Vacuum of Co-crystal Rosuvastatin 2-Aminopyrimidine Hemihydrates Compared to Rosuvastatin
The co-crystal has only 3 impurities at 5.651, 5.948 and 6.674 (lactone) min.
For RSV, only some impurities (impurities in common with the co-crystal or impurities with a significant variation) were studied.
Storage conditions: 40° C. under vacuum for 20 and 40 hours.

[3] = Solid-state stability, stored at room temperature in a sealed vial (XRPD); type: physicochemical; details: 3 weeks
[4] = Humidity stability, stored at room temperature at RH 100% (XRPD); type: physicochemical; details: RH of 100%, 24 h
From the text: Moreover, the solid maintains its good handling properties.

[5] = Polymorphism observed during screening and purification studies; type: physicochemical; details: during screening and studies of the purification of Rosuvastatin
From the text: Co-crystals of the present invention have a relative lack of polymorphism due to the higher complexity of the crystal structure: polymorphs of co-crystal Rosuvastatin 2-aminopyrimidine hemihydrate were not observed during screening and studies of the purification of Rosuvastatin. In contrast, form salts of Rosuvastatin amines having different polymorphs.

[6] = Solubility in a series of solvents at room temperature; type: physicochemical
From the text: The solubility of co-crystal Rosuvastatin 2-aminopyrimidine hemihydrate in a series of solvents at room temperature is provided in Table 2 given below: […]

[7] = 40° C. under vacuum, 20 and 40 hours

Compound | pKa [1] | change of other impurities on storage [2, 7] | lactone content after storage ([2]; 40° C. under vacuum) [%] | lactone impurity content of starting product [2] [%] | crystalline transformation or loss of crystallinity (XRPD) [3] | new impurities on storage [2, 7] | chemical stability compared to Rosuvastatin acid ([2]; 40° C. under vacuum, listed as Co-crystal Rosuvastatin 2-aminopyrimidine hemihydrate) | chemical stability compared to Rosuvastatin acid ([2]; 40° C. under vacuum, listed as co-crystal) | XRPD / crystallinity after humidity exposure [4] | polymorphs observed [5] | solubility in ACN ([6]; ACN) [vol.] | solubility in AcOEt ([6]; AcOEt) [vol.] | solubility in Acetone ([6]; Acetone) [vol.] | solubility in EtOH ([6]; EtOH) [vol.] | solubility in MIK ([6]; MIK) [vol.] | solubility in MeOH ([6]; MeOH) [vol.] | solubility in THF ([6]; THF) [vol.]
CC(C)c1nc(N(C)S(C)(=O)=O)nc(-c2ccc(F)cc2)c1/C=C/[C@@H](O)C[C@@H](O)CC(=O)O [RSV, (E)-(3R,5S)-7-[4-(4-Fluorophenyl)-6-isopropyl-2-[(methylsulfonyl)(methyl)amino]pyrimidin-5-yl]-3,5-dihydroxyhept-6-enoic acid, reference compound] | 4.6 | increased with time | 39.84 | 17.267 |  |  |  |  |  |  |  |  |  |  |  |  | 
c1ccc2nccnc2c1 [quinoxaline] | 0.56 |  |  |  |  |  |  |  |  |  |  |  |  |  |  |  | 
Rosuvastatin 2-aminopyrimidine hemihydrate |  | negligible | 0.091 | 0.036 | does not show crystalline transformation (same XRPD) or loss of crystallinity | No new impurities were observed | higher than the Rosuvastatin acid | higher than the stability of the Rosuvastatin acid | same XRPD without loss of crystallinity | not observed | 14 | 20 | 4 | 10 | 45 | 3 | 2
